Laboratory results: patent US7087584B2, “Detection and modulation of IAPs and NAIP for the diagnosis and treatment of proliferative disease” (Aegera Therapeutics Inc., priority 1997, dated 2006)

Columns and labels:
[1] = tested on: HeLa cells; test: Apoptosis and 26 kDa xiap cleavage product (Western blot) in HeLa cells; type: cell-based, human; conditions: 18 hours; for 26 kDa xiap cleavage product: HeLa cells, cycloheximide 20 μg/ml, TNFα 1,000 U/ml, anti-Fas antibody 1 μg/ml; for apoptosis of HeLa cells: cycloheximide 20 μg/ml or TNFα 1,000 U/ml alone
Method: A 26 kDa xiap-reactive band was also observed under the following experimental conditions. Jurkat cells (a transformed human T cell line) were induced to undergo apoptosis by exposure to an anti-Fas antibody (1 μg/ml). Identical cultures of Jurkat cells were exposed either to: (1) anti-Fas antibody and cycloheximide (20 μg/ml), (2) tumor necrosis factor alpha (TNF-α, at 1,000 U/ml), or (3) TNF-α and cycloheximide (20 μg/ml). All cells were harvested 6 hours after treatment began. In addition, as a negative control, anti-Fas antibody was added to an extract after the cells were harvested. The cells were harvested in SDS sample buffer, electrophoresed on a 12.5% SDS polyacrylamide gel, and electroblotted onto PVDF membranes using standard methods. The membranes were immunostained with a rabbit polyclonal anti-xiap antibody at 1:1000 for 1 hour at room temperature. Following four 15 minute washes, a goat anti-rabbit antibody conjugated to horse-radish peroxidase was applied at room temperature for 1 hour. Unbound secondary antibody was washed away, and chemiluminescent detection of xiap protein was performed. […] In addition, a novel, approximately 26 kDa xiap-reactive band was also observed in apoptotic cell extracts, but not in the control, untreated cell extracts (FIG. 13).
Cleavage of xiap occurs in a variety of cell types, including other cancer cell lines such as HeLa. […] HeLa cells were treated with either: (1) cyclohexamide (20 μg/ml), (2) anti-Fas antibody (1 μg/ml), (3) anti-Fas antibody (1 μg/ml) and cyclohexamide (20 μg/ml), (4) TNFα (1,000 U/ml), or (5) TNFα (1,000 U/ml) and cyclohexamide (20 μg/ml). All cells were harvested 18 hours after treatment began. As above, anti-Fas antibody was added to an extract after the cells were harvested. HeLa cells were harvested, and the Western blot was probed under the same conditions as used to visualize xiap-reactive bands from Jurkat cell samples. A 26 kDa xiap band was again seen in the apoptotic cell preparations (FIG. 14). Furthermore, the degree of xiap cleavage correlated positively with cellular exposure to apoptotic triggers.
The time course over which the 26 kDa cleavage product accumulates was examined by treating HeLa and Jurkat cells with anti-Fas antibody (1 μg/ml) and harvesting them either immediately, or 1, 2, 3, 5, 10, or 22 hours after treatment. Protein extracts were prepared and Western blot analysis was performed as described above.

[2] = tested on: XIAP protein in OV2008 cells; test: Western blot for XIAP protein in OV2008 cells; type: cell-based, human
Method: (§1) Cisplatin-sensitive (OV2008) and -resistant (C13) human ovarian epithelial cells were cultured in a chemically-defined medium at 37° C. for up to 48 hours in the presence or absence of TGFβ (20 ng/ml), taxol (0–1.0 μM) or cisplatin (0–30 μM). At the end of the culture period, cells were either fixed for immunocytochemistry and TUNEL analyses, or snap frozen for subsequent extraction for IAP mRNA and proteins analyses.
(§2) Protein extracts were prepared from human surface epithelial cancer cells sonicated (8 s/cycle, 3 cycles) on ice in sucrose buffer (0.25 M sucrose, 0.025 M NaCl, 1 mM EGTA and 15 mM Tris-HCl pH 6.8, supplemented with 1 mM PMSF, 2 μg/ml of leupeptin and 5 μg/ml of aprotinin. The sonicates were centrifuged at 13,000×g for 10 min, the supernatants were collected and stored at −20° C. until electrophoretic analyses were performed. Protein concentration was determined by Bio-Rad Protein Assay. Proteins (10–30 μg) were resolved by one-dimensional SDS-PAGE, and electrophoretically transferred to nitrocellulose membrane. Membranes were blocked with 5% non-fat milk, and subsequently incubated with rabbit polyclonal antibody for IAP anti-human Hiap-2ΔE(960529; 1:1000 dilution), anti-human NAIP E1.0 (951015; 1:1000 dilution) or anti-human Xiap (1:1000 dilution) diluted in TBST (10 mM Tris-buffered saline, 0.1% Tween-20, pH 7.5) containing 5% milk. […]

[3] = tested on: Cisplatin-sensitive (OV2008) human ovarian epithelial cells; test: Apoptosis (nuclear staining, DNA ladders, TUNEL) in cisplatin-sensitive ovarian cancer cells; type: cell-based; conditions: for incidence of apoptosis: cisplatin 0-30 μM or taxol 0-1.0 μM, up to 48 hours
Method: as §1
(§3) Human ovarian epithelial cancer cells were fixed (4% formalin in PBS; 10 min. RT), washed in PBS, resuspended in Hoescht 33248 stain (0.1 μg/ml PBS, 10 min) washed again and spotted onto slides for microscopy. Nuclear staining was observed and photographed using a Zeiss fluorescent microscope equipped with an FITC filter. Apoptotic cells were identified by typical nuclear morphology, and counted using randomly selected fields and numbered photographic slides to avoid bias during counting.
(§4) Cellular DNA was extracted using the Qiagen Blood Amt kit. DNA was quantified by ethidium bromide fluorescence. DNA (0.5 μg) was then end labelled by incubating (20 min, RT) with Klenow enzyme (2 U in 10 mM Tris+5 mM MgCl2) and 0.1 μCi [α32P]dCTP. Unincorporated nucleotides were removed with the Qiagen nucleotide removal kit and samples were resolved by Tris-acetate-EDTA agarose (1.8%) gel electrophoresis. The gel was then dried (2 hr, no heat) and exposed to a Bio-Rad phosphoimager screen to densitometrically quantify low molecular weight DNA (<15 kBp) and subsequently to x-ray film at −80° C.
To identify cell death using the in situ cell death detection kit (Boehringer-Mannheim), slides prepared for histology were treated (20 min. 37° C.) with terminal tranferase in the presence of FITC-conjugated dUTP.

[4] = tested on: XIAP protein in C13 cells; test: Western blot for XIAP protein in C13 cells; type: cell-based, human
Method: as §1, §2

[5] = tested on: Cisplatin-resistant (C13) human ovarian epithelial cells; test: Apoptosis (nuclear staining, DNA ladders, TUNEL) in cisplatin-resistant ovarian cancer cells; type: cell-based; conditions: TGFβ 20 ng/ml
Method: as §1, §3
as §4, with “Unincorporated nucleotides were removed with the Qiagen nucleotide removal kit and samples were resolved by Tris-acetate-EDTA agarose (1.8%) gel electrophoresis.” left out, “C. […]” for “C.”

[6] = tested on: HIAP-2 mRNA in C13 cells; test: Northern blot for HIAP-2 mRNA in C13 cells; type: cell-based, human
Method: as §1
(§5) Total RNA from ovarian surface epithelial cancer cells by using RNeasy Kit (Qiagen). The RNA samples (10–15 μg) were quantified spectrophotometrically and size-fractioned by electrophoresis on formaldehyde-agarose gels (1.1%) containing 1 μg/ml ethidium bromide to confirm even loading of RNA samples and adequate separation of 28S and 18S ribosomal bands. The RNAs bands were blotted onto a nylon membrane and cross-linked by UV light. Membranes were prehybridized in 50% formamide, saline sodium citrate (SSC; 750 mM NaCl, 75 mM Na citrate), 1×Denhardt's solution, 1% SDS, 4 mM EDTA and 100 μg/ml sheared salmon sperm DNA for 4 h at 42° C. Hybridization was performed overnight at 42° C. with 20 million cpm of ^32P-labelled IAP cDNA probes (rat Naip, rat Xiap or human Hiap-2) added to the prehybridization buffer. […] Data were normalized by the respective 28S and expressed as a percentage of the control (defined as 100%).

[7] = tested on: HIAP-2 mRNA in OV2008 cells; test: Northern blot for HIAP-2 mRNA in OV2008 cells; type: cell-based, human
Method: as §1, §5

[8] = tested on: HIAP-2 protein in C13 cells; test: Western blot for HIAP-2 protein in C13 cells; type: cell-based, human
Method: as §1, §2

[9] = tested on: HIAP-2 protein in OV2008 cells; test: Western blot for HIAP-2 protein in OV2008 cells; type: cell-based, human
Method: as §1, §2

Molecule: C[C@@H]1C[C@@H]([C@H](O)CC2CC(=O)NC(=O)C2)C(=O)[C@@H](C)C1 [cycloheximide]
- 26 kDa xiap cleavage product [1]: little cleavage product
- apoptosis of HeLa cells [1]: only minor apoptosis

Molecule: TNFα
- 26 kDa xiap cleavage product [1]: little cleavage product
- apoptosis of HeLa cells [1]: only minor apoptosis

Molecule: TGFβ: TGFβ (20 ng/ml) added to ovarian cancer cell cultures
- influence on Xiap protein content ([2]; cisplatin-sensitive cells, TGFβ 20 ng/ml): markedly suppressed
- induction of apoptosis ([3]; TGFβ 20 ng/ml): induced apoptosis
- influence on Xiap protein content ([4]; cisplatin-resistant cells, TGFβ 20 ng/ml): only marginal
- induction of apoptosis [5]: not in C13
- HIAP-2 mRNA ([6]; C13 cells, TGFβ 20 ng/ml): not C13
- HIAP-2 mRNA ([7]; OV2008 cells, TGFβ 20 ng/ml): decreased

Molecule: CC(=O)O[C@H]1C(=O)[C@@]2(C)[C@H]([C@H](OC(=O)c3ccccc3)[C@]3(O)C[C@H](OC(=O)[C@H](O)[C@@H](NC(=O)c4ccccc4)c4ccccc4)C(C)=C1C3(C)C)[C@]1(OC(C)=O)CO[C@@H]1C[C@@H]2O [Taxol]
- XIAP protein level ([2]; OV2008 cells, Taxol 0.04-1.0 μM, concentration-dependent, more pronounced than in resistant cells): decreased
- incidence of apoptosis [3]: induced apoptosis
- content of approx. 45 kDa immunoreactive fragment of HIAP-2 ([8]; Taxol): increased
- HIAP-2 protein level ([8]; Taxol 0.04-1.0 μM, concentration-dependent, less pronounced than in sensitive cells): decreased
- XIAP protein level ([4]; C13 cells, Taxol 0.04-1.0 μM, concentration-dependent, less pronounced than in sensitive cells): decreased
- suppression of HIAP-2 mRNA abundance ([6]; cisplatin-resistant cells, Taxol 0.2 μM): ineffective
- content of approx. 45 kDa immunoreactive fragment of HIAP-2 ([9]; Taxol): decreased
- HIAP-2 protein level ([9]; Taxol 0.04-1.0 μM, concentration-dependent, more pronounced than in resistant cells): decreased
- suppression of HIAP-2 mRNA abundance ([7]; cisplatin-sensitive cells, Taxol 0.2 μM): approx. 80%

Molecule: N.N.[Cl][Pt][Cl] [Cisplatin, cisplatin]
- incidence of apoptosis [3]: concentration-dependent increase
